The nature of one data set: CHI Log D procedure. The settings on record: for chromatographic logD: pH 7.4, CHI Log D. The data set is classed as physicochemical.
In data set [1] the target is T1, full-length beta-Catenin (Uniprot ID P35222) (Homo sapiens, UniProt P35222).
T1 construct: 10 nM full-length beta-Catenin (Uniprot ID P35222)
T1 sequence (P35222 1-781): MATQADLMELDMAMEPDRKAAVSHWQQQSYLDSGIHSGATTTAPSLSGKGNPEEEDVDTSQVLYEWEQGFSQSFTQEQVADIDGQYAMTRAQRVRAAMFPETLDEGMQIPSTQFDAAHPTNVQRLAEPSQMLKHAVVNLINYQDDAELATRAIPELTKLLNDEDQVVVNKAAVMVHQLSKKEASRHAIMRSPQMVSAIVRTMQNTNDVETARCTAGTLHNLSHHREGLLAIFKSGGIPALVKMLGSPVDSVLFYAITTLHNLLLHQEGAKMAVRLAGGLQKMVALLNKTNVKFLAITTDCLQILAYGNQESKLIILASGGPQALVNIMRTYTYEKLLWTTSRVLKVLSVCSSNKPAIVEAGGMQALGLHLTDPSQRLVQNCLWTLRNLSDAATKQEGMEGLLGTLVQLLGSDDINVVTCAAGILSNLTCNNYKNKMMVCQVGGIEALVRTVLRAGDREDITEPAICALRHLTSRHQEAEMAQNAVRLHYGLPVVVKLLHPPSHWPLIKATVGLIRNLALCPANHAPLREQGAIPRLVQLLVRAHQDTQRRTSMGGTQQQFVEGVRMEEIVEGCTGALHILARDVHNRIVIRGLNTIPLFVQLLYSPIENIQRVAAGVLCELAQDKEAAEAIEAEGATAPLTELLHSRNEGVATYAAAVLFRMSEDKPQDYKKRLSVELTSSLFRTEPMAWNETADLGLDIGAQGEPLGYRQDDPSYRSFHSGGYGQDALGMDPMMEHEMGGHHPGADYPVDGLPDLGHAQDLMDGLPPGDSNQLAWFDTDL
Kind of data set: Fluorescence polarization IC50 (beta-catenin / 5FAM-TCF4 10-53 competition). Format: binding. A general note: In fluorescence polarisation assays a small probe gives low polarisation when free and higher when bound to something large.

The mark [2] stands for this setting: Table E2-1, read-out: beta-Catenin FP IC50.

The structures appear in SMILES notation. Read-outs that look alike come from different tables or passages of the source.

As a reminder, the chromatographic logD is lipophilicity estimated from chromatographic retention. Lower therefore signals a more hydrophilic compound. In the data set “CHI Log D procedure”, `CC(=O)N1CCC[C@]12CC=CCCCC1(CCCC=CCCCCCC[C@@](C)(C(=O)N[C@@H](Cc3ccccc3)C(=O)N[C@@H](Cc3c[nH]c4ccccc34)C(=O)N[C@@H](C)C(N)=O)NC(=O)[C@H](C(C)C)NC(=O)[C@H](Cc3ccccc3)NC(=O)[C@H](C)NC(=O)[C@H](C)NC(=O)[C@H](CCC(=O)O)NC(=O)[C@H](CC(=O)O)NC1=O)NC(=O)[C@H](C)NC(=O)[C@H](CC(=O)O)NC2=O` (stereo partly drawn) [I-135, Ac-PL3-Asp-Ala-B5-Asp-Glu-Ala-Ala-Phe-Val-S8-Phe-Trp-Ala-NH2] had a chromatographic logD of 2.18. For the same molecule, in data set [1] (setting [2]), the IC50 is 1.87 µM.
Turning to `CC(=O)N1CCC[C@]12CC=CCCCC1(CCCC=CCCCCCC[C@@](C)(C(=O)N[C@@H](Cc3ccccc3)C(=O)N[C@@H](Cc3ccc4ccccc4n3)C(=O)N[C@@H](CCC(N)=O)C(N)=O)NC(=O)[C@H](C(C)C)NC(=O)[C@H](Cc3ccccc3)NC(=O)[C@H](C)NC(=O)[C@H](C)NC(=O)[C@H](CCC(=O)O)NC(=O)[C@H](CC(=O)O)NC1=O)NC(=O)[C@H](C)NC(=O)[C@H](CC(=O)O)NC2=O` (stereo partly drawn) [I-143, Ac-PL3-Asp-Ala-B5-Asp-Glu-Ala-Ala-Phe-Val-S8-Phe-Qui-Gln-NH2], the chromatographic logD in “CHI Log D procedure” was found to be 2.07. The IC50 in data set [1] (setting [2]) turned out to be 2.27 µM.
In the same order, the values of `CC[C@H](C)[C@H](NC(=O)[C@H](CC(=O)O)NC(=O)C(C)(C)NC(C)=O)C(=O)N[C@]1(C)CCN(C)C(=O)OCC=CCCCCC[C@@](C)(C(=O)N[C@@H](Cc2ccccc2)C(=O)N[C@@H](Cc2c[nH]c3ccccc23)C(N)=O)NC(=O)[C@H](CCC(N)=O)NC(=O)[C@H](Cc2ccccc2)NC(=O)[C@H](C)NC(=O)[C@H](C)NC(=O)[C@H](CCC(=O)O)NC(=O)[C@H](CC(=O)O)NC1=O` [I-147, Ac-Aib-Asp-Ile-RdN-Asp-Glu-Ala-Ala-Phe-Gln-S7-Phe-Trp-NH2] are 1.4 and 1.64 µM.
In the same order, the values of `CC[C@H](C)[C@H](NC(=O)[C@H](CC(=O)O)NC(=O)[C@H](C)NC(C)=O)C(=O)N[C@]1(C)CCN(C)C(=O)OCC=CCCCCC[C@@](C)(C(=O)N[C@@H](Cc2ccccc2)C(=O)N[C@@H](Cc2c[nH]c3ccccc23)C(=O)N[C@@H](Cc2c[nH]cn2)C(N)=O)NC(=O)[C@H](C)NC(=O)[C@H](Cc2ccccc2)NC(=O)[C@H](C)NC(=O)[C@H](C)NC(=O)[C@H](CCC(=O)O)NC(=O)[C@H](CC(=O)O)NC1=O` [I-152, Ac-Ala-Asp-Ile-RdN-Asp-Glu-Ala-Ala-Phe-Ala-S7-Phe-Trp-His-NH2] are 1.34 and 5 µM.
In the same order, the values of `CC(=O)N1CCC[C@]12CC=CCCCC1(CCCC=CCCCCCC[C@@](C)(C(=O)N[C@@H](Cc3ccccc3)C(=O)N[C@@H](Cc3c[nH]c4c(F)cccc34)C(=O)N[C@@H](CCC(N)=O)C(N)=O)NC(=O)[C@H](C(C)C)NC(=O)[C@H](Cc3ccccc3)NC(=O)[C@H](C)NC(=O)[C@H](C)NC(=O)[C@H](CCC(=O)O)NC(=O)[C@H](CC(=O)O)NC1=O)NC(=O)[C@H](C)NC(=O)[C@H](CC(=O)O)NC2=O` (stereo partly drawn) [I-166, Ac-PL3-Asp-Ala-B5-Asp-Glu-Ala-Ala-Phe-Val-S8-Phe-7FW-Gln-NH2] are 2.06 and 2.16 µM.
For the molecule `CC(=O)N1CCC[C@]12CC=CCCCC1(CCCC=CCCCCCC[C@@](C)(C(=O)N[C@@H](Cc3ccccc3)C(=O)N[C@@H](Cc3c[nH]c4ccccc34)C(=O)N[C@@H](CCC(N)=O)C(N)=O)NC(=O)[C@H](C(C)C)NC(=O)[C@H](Cc3ccccc3)NC(=O)[C@H](C)NC(=O)[C@H](C)NC(=O)[C@@H](CCC(=O)O)NC(=O)[C@H](CC(=O)O)NC1=O)NC(=O)[C@H](C)NC(=O)[C@H](CC(=O)O)NC2=O` (stereo partly drawn) [I-182, Ac-PL3-Asp-Ala-B5-Asp-DGlu-Ala-Ala-Phe-Val-S8-Phe-Trp-Gln-NH2], the chromatographic logD in “CHI Log D procedure” came to 2.07. Further, in data set [1] (setting [2]), the IC50 is 2.8 µM.
In the case of `CC(=O)N1CCC[C@]12CC=CCCCC1(CCCC=CCCCCCC[C@@](C)(C(=O)N[C@@H](Cc3ccccc3)C(=O)N[C@@H](Cc3ccc4ccccc4c3)C(=O)N[C@@H](CCC(N)=O)C(N)=O)NC(=O)[C@H](C(C)C)NC(=O)[C@H](Cc3ccc(F)c(F)c3)NC(=O)[C@H](C)NC(=O)[C@H](C)NC(=O)[C@H](CCC(=O)O)NC(=O)[C@H](CC(=O)O)NC1=O)NC(=O)[C@H](C)NC(=O)[C@H](CC(=O)O)NC2=O` (stereo partly drawn) [I-184, Ac-PL3-Asp-Ala-B5-Asp-Glu-Ala-Ala-34FF-Val-S8-Phe-2NapA-Gln-NH2], the chromatographic logD in “CHI Log D procedure” is 2.27. For the same molecule, the IC50 in data set [1] (setting [2]) stood at 3.11 µM.
Consider `CC(=O)N1CCC[C@]12CC=CCCCC1(CCCC=CCCCCCC[C@@](C)(C(=O)N[C@@H](Cc3ccccc3)C(=O)N[C@@H](Cc3c[nH]c4ccccc34)C(=O)N[C@@H](C)C(N)=O)NC(=O)[C@H](C)NC(=O)[C@H](Cc3ccccc3)NC(=O)[C@H](C)NC(=O)[C@H](C)NC(=O)[C@H](CCC(=O)O)NC(=O)[C@H](CC(=O)O)NC1=O)NC(=O)[C@H](C)NC(=O)[C@H](CC(=O)O)NC2=O` (stereo partly drawn) [I-187, Ac-PL3-Asp-Ala-B5-Asp-Glu-Ala-Ala-Phe-Ala-S8-Phe-Trp-Ala-NH2], for which, in the data set “CHI Log D procedure” (pH 7.4), the “CHI Log D” value is reported as 2.083. Also, the IC50 in data set [1] (setting [2]) turned out to be 3.32 µM; in data set [1] (fluorescence polarization, beta-catenin, read-out: FP EC50) it was 3.32 µM.
`CC(=O)N1CCC[C@]12CC=CCCCC1(CCCC=CCCCCCC[C@@](C)(C(=O)N[C@@H](Cc3ccccc3)C(=O)N[C@@H](Cc3c[nH]c4ccccc34)C(=O)N[C@@H](CCC(N)=O)C(N)=O)NC(=O)[C@H](C(C)C)NC(=O)[C@H](Cc3ccccc3)NC(=O)[C@H](C)NC(=O)[C@H](C)NC(=O)[C@H](CCC(=O)O)NC(=O)[C@H](CC(N)=O)NC1=O)NC(=O)[C@H](C)NC(=O)[C@H](CC(=O)O)NC2=O` (stereo partly drawn) [I-198, Ac-PL3-Asp-Ala-B5-Asn-Glu-Ala-Ala-Phe-Val-S8-Phe-Trp-Gln-NH2] had a chromatographic logD in the data set “CHI Log D procedure” of 2.37. Also, the IC50 in data set [1] (setting [2]) was 5 µM.
In the same order, the values of `CC(=O)N1CCC[C@]12CC=CCCCC1(CCCC=CCCCCCC[C@@](C)(C(=O)N[C@@H](Cc3cccc(F)c3)C(=O)N[C@@H](Cc3c[nH]c4ccccc34)C(=O)N[C@@H](CCC(N)=O)C(N)=O)NC(=O)[C@H](C(C)C)NC(=O)[C@H](Cc3ccccc3)NC(=O)[C@H](C)NC(=O)[C@H](C)NC(=O)[C@H](CC(=O)O)NC(=O)[C@H](CC(=O)O)NC1=O)NC(=O)[C@H](C)NC(=O)[C@H](CC(=O)O)NC2=O` (stereo partly drawn) [I-260, Ac-PL3-Asp-Ala-B5-Asp-Asp-Ala-Ala-Phe-Val-S8-3FF-Trp-Gln-NH2] are 2.06 and 5 µM.
In the same order, the values of `CC(=O)N1CCC[C@]12CC=CCCCC1(CCCC=CCCCCCC[C@@](C)(C(=O)N[C@@H](Cc3ccc(F)cc3)C(=O)N[C@@H](Cc3c[nH]c4ccccc34)C(=O)N[C@@H](CCC(N)=O)C(N)=O)NC(=O)[C@H](C(C)C)NC(=O)[C@H](Cc3ccccc3)NC(=O)[C@H](C)NC(=O)[C@H](C)NC(=O)[C@H](CC(=O)O)NC(=O)[C@H](CC(=O)O)NC1=O)NC(=O)[C@H](C)NC(=O)[C@H](CC(=O)O)NC2=O` (stereo partly drawn) [I-261, Ac-PL3-Asp-Ala-B5-Asp-Asp-Ala-Ala-Phe-Val-S8-4FF-Trp-Gln-NH2] are 2.01 and 5 µM.
In the case of `CC(=O)N1CCC[C@]12CC=CCCCC1(CCCC=CCCCCCC[C@@](C)(C(=O)N[C@@H](Cc3ccccc3)C(=O)N[C@@H](Cc3c[nH]c4ccccc34)C(=O)N[C@@H](CCC(N)=O)C(N)=O)NC(=O)[C@H](C(C)C)NC(=O)[C@H](Cc3ccc(F)cc3)NC(=O)[C@H](C)NC(=O)[C@H](C)NC(=O)[C@H](CC(=O)O)NC(=O)[C@H](CC(=O)O)NC1=O)NC(=O)[C@H](C)NC(=O)[C@H](CC(=O)O)NC2=O` (stereo partly drawn) [I-266, Ac-PL3-Asp-Ala-B5-Asp-Asp-Ala-Ala-4FF-Val-S8-Phe-Trp-Gln-NH2], the chromatographic logD in “CHI Log D procedure” was 2.02. The IC50 in data set [1] (setting [2]) worked out at 5 µM.
For `CC(=O)N1CCC[C@]12CC=CCCCC1(CCCC=CCCCCCC[C@@](C)(C(=O)N[C@@H](Cc3ccccc3)C(=O)N[C@@H](Cc3c[nH]c4ccccc34)C(=O)N[C@@H](CCC(N)=O)C(N)=O)NC(=O)[C@H](C(C)C)NC(=O)[C@H](Cc3ccccc3)NC(=O)[C@H](C)NC(=O)[C@H](C)NC(=O)[C@H](Cc3ccccn3)NC(=O)[C@H](CC(=O)O)NC1=O)NC(=O)[C@H](C)NC(=O)[C@H](CC(=O)O)NC2=O` (stereo partly drawn) [I-270, Ac-PL3-Asp-Ala-B5-Asp-2PyrA-Ala-Ala-Phe-Val-S8-Phe-Trp-Gln-NH2], in “CHI Log D procedure”, the chromatographic logD is 2.5. Besides, the IC50 in data set [1] (setting [2]) was 5 µM.
Consider `CC(=O)N1CCC[C@]12CC=CCCCC1(CCCC=CCCCCCC[C@@](C)(C(=O)N[C@@H](Cc3ccccc3)C(=O)N[C@@H](Cc3c[nH]c4ccccc34)C(=O)N[C@@H](C)C(N)=O)NC(=O)[C@H](C)NC(=O)[C@H](Cc3ccccc3)NC(=O)[C@H](C)NC(=O)[C@H](C)NC(=O)[C@H](CC(=O)O)NC(=O)[C@H](CC(=O)O)NC1=O)NC(=O)[C@H](C)NC(=O)[C@H](CC(=O)O)NC2=O` (stereo partly drawn) [I-286, Ac-PL3-Asp-Ala-B5-Asp-Asp-Ala-Ala-Phe-Ala-S8-Phe-Trp-Ala-NH2], for which the chromatographic logD in “CHI Log D procedure” was 2.01. The IC50 in data set [1] (setting [2]) turned out to be 4.48 µM.

For the origin of these results see patent publication US20240116985A1, “STAPLED PEPTIDES AND METHODS THEREOF” (priority 2020, published 2024).
